# Measured values from patent US6849405B2, “Translation enhancer element of the human amyloid precursor protein gene” (The Brigham and Women's Hospital, Inc., priority 1997, dated 2005).
# Entries after “also recorded” stand apart in the source; their conditions may differ.
# How the values were obtained:
# [1] = tested on: H-ferritin subunit synthesis; assay: H-ferritin subunit synthesis, [35S]-methionine labeling and immunoprecipitation, primary astrocytes; assay type: cell-based; conditions: primary human fetal astrocytes, 0.5 ng/ml, 16 hours
# [2] = tested on: L-ferritin subunit synthesis; assay: L-ferritin subunit synthesis, [35S]-methionine labeling and immunoprecipitation, primary astrocytes; assay type: cell-based; conditions: primary human fetal astrocytes, 0.5 ng/ml, 16 hours
# ACT-mRNA = assay: Northern blot of ACT-mRNA, astrocytoma cells; assay type: cell-based, human; conditions: astrocytoma cells, 16 hours of IL-1 stimulation, 48 hours blot exposure
# Procedure: Total RNA (10 μg) was extracted from primary astrocytes and astrocytoma cells with a RNA-STAT kit (Tel-Test). RNA samples were denatured in 50% formamide/2.2 M formaldehyde/20 mM MOPS/5 mM sodium acetate/0.5 mM EDTA, pH 7.4, at 60° C. for 10 minutes, electrophoresed on 1.0% agarose-formaldehyde gels, blotted onto Hybond-N filters and immobilized by UV crosslinking and heating filters to 80° C. Filters were prehybridized for 3 hours and hybridized overnight in a solution consisting of 50% formamide, […] denatured salmon sperm DNA, 5×SSC, 0.1% sodium dodecyl sulfate and 5×Denhardt's solution. Following hybridization, filters were washed twice for a total of 1 hour in 2×SSC/0.2% sodium dodecyl sulfate at room temperature and twice each for a total of 1 hour in 0.5×SSC/0.1% sodium dodecyl sulfate at 55° C. Equal loading was verified by ethidium bromide staining, non-specific hybridization of the ACT probe to the 28S rRNA, and by standardized hybridization to the GAPDH cDNA probe as an internal standard. The APP cDNA probe corresponded to the unique internal 1 kb fragment gel purified from the 3 kb APP cDNA (Kang et al. Nature 325: 733 (1987)), the ACT cRNA probe to a PstI/SacI fragment (536-943) in the human ACT cDNA (Chandra, et al., Biochemistry 22: 5055 (1983)) and the GAPDH probe to the human GAPDH gene (Tokunaga, et al., Cancer Res. 47: 5616 (1987)).
# [3] = tested on: APP protein at the site of the lesion; conditions: injected into rat cerebral cortex; cited from earlier work
substance,measurement,setting,value
interleukin-1 [IL-1],up regulation in H-ferritin subunit synthesis,[1],4 fold
same,up regulation in L-ferritin subunit synthesis,[2],25%
same,induction in steady-state levels of ACT-mRNA,ACT-mRNA,6 fold
same,steady-state levels of APP protein at the site of the lesion,[3],increase the steady-state level of APP-protein; also recorded: increases the steady-state levels of APP protein
